Mortality and LC50 data for four molecules are collected here from patent US4602109A, “Novel pesticidal phenoxyphenyl and phenoxypyridyl benzoyl ureas and process for preparation” (Union Carbide Corporation, priority 1984, dated 1986).

Holding throughout (type): in vivo
Test [1] deals with southern armyworm (Spodoptera eridania). The test can be described thus: Southern Armyworm Leaf Spray Bait Test. The following applies: 120 h, read-out: Percent Control after 5 days. How it is done: Suspensions of the test compounds were prepared by dissolving one gram of compound in 50 milliliters of acetone in which had been dissolved 0.1 gram (10 percent of the weight of compound) of an alkylphenoxy polyethoxyethanol surfactant, as an emulsifying or dispersing agent. The resulting solution was mixed into 150 milliliters of water to give roughly 200 milliliters of a suspension containing the compound in finely divided form. The thus-prepared stock suspension contained 0.5 percent by weight of compound.
Certain of the test compounds were also prepared by dissolving 375 mg of compound in 7.5 ml of dimethylformamide. Fifteen ml of acetone containing 37.5 mg (10 percent of the weight of test compound) of an alkylphenoxy polyethoxyethanol surfactant, as a wetting/emulsifying/dispersing agent was added to the dimethylformamide solution. Fifty-two and a half ml of water was mixed into the dimethylformamide-acetone mixture to give roughly 75 ml of a suspension containing the compound in solution or in finely divided form. The thus prepared stock suspension contained 0.5 percent by weight of compound. The test concentrations in parts per million by weight employed in the tests described hereinbelow were obtained by appropriate dilutions of the stock suspension with water. The test procedures were as follows:
Larvae of the southern armyworm (Spodoptera eridania, (Cram.), reared on Tendergreen bean plants at a temperature of 80°±5° F. and a relative humidity of 50±5 percent, constituted the test insects.
The test compounds were formulated by diluting the stock suspension with water to give a suspension containing 500 parts of test compound per million parts of final formulation. Potted Tendergreen bean plants of standard height and age were placed on a revolving turntable and sprayed with 100-110 milliliters of test compound formulation by use of a DeVilbiss spray gun set at 40 psig air pressure. This application, which lasted 25 seconds, was sufficient to wet plants to run-off. As a control, 100-110 milliliters of a water-acetone-emulsifier solution containing no test compound were also sprayed on infested plants. When dry, the paired leaves were separated and each one was placed in a 9 centimeter Petri dish lined with moistened filter paper. Five randomly selected larvae were introduced into each dish and the dishes were closed. The closed dishes were labeled and held at 80°-85° F. for five days. Although the larvae could easily consume the whole leaf within twenty-four hours, no more food was added. Larvae which were unable to move the length of the body, even upon stimulation by prodding, were considered dead. Percent mortality was recorded for various concentration levels.

For another test, the system named is H. Zea. The test can be described thus: Comparison against Heliothis spp: H. Zea.
The test system of the next test is H. Virecens. The test can be described thus: Comparison against Heliothis spp: H. Virecens. The following applies: read-out: LD50, H. Virecens.
Setting [2] is: Helicoverpa zea; read-out: LD50, H. Zea.

≈ marks a conversion by molar mass, not a printed value. Read-outs that look alike come from different tables or passages of the source.

Consider `O=C(NC(=O)c1c(F)cccc1F)Nc1ccc(Cl)cc1` [1-(4-chlorophenyl)-3-(2,6-difluorobenzoyl)urea, reference compound], for which, in test [1], the mortality at 5 ppm is 40% and the mortality at 10 ppm was 100%. The LC50 with H. Zea (Helicoverpa zea, read-out: LD50, H. Zea) was determined as 500 µg/mL (≈ 1610 µM). Moreover, in the test with H. Virecens, the LC50 was 31 µg/mL (≈ 99.8 µM).

On to `O=C(NC(=O)c1c(F)cccc1F)Nc1cc(Cl)c(Oc2ccc(S(=O)(=O)c3ccc(Cl)cc3)cc2)c(Cl)c1` [Example 2, 1-(2,6-Difluorobenzoyl)-3-(3,5-dichloro-4-[4-(4-chlorophenylsulfonyl)phenoxy]phenyl)urea], for which, in test [1], the mortality at 3 ppm was determined as 100%, the mortality at 6 ppm amounted to 90% and the mortality at 12 ppm was found to be 100%. The LC50 in the test on H. Zea (setting [2]) came out at 12.5 µg/mL (≈ 20.4 µM). Further, the LC50 in the test on H. Virecens stood at 8.5 µg/mL (≈ 13.9 µM).

Consider `O=C(NC(=O)c1c(F)cccc1F)Nc1ccc(Oc2ccc(S(=O)(=O)c3ccc(Cl)cc3)cc2)c(Cl)c1` [Example 3, 1-(2,6-difluorobenzoyl)-3-(3-chloro-4-[4-((4-chloro-phenylsulfonyl))-phenoxy]phenyl)urea], for which, in test [1], the mortality at 3 ppm stood at 56%, the mortality at 6 ppm amounted to 75% and the mortality at 12 ppm turned out to be 100%. The LC50 in the test on H. Zea (setting [2]) is 31 µg/mL (≈ 53.7 µM). Further, the LC50 with H. Virecens amounted to 31 µg/mL (≈ 53.7 µM).

Turning to `O=C(NC(=O)c1c(F)cccc1Cl)Nc1ccc(Oc2ccc(S(=O)(=O)c3ccc(Cl)cc3)cc2)cc1` [Example 9, 1-(2-chloro-6-fluorobenzoyl)-3-(4-[4-(4-chloro-phenylsulfonyl)phenoxy]-phenyl)urea], in test [1], the mortality at 1.5 ppm worked out at 60%, the mortality at 6 ppm amounted to 100% and the mortality at 20 ppm turned out to be 100%.
